Experimental data: patent US8192962B2, “Processes for detecting toxic substances” (Daikin Industries, Ltd., priority 2001, dated 2012)

Tested on: Genes belonging to other category
Assay: DNA chip mRNA expression in yeast, genes belonging to other category (Table 9)
Assay type: cell-based, Saccharomyces cerevisiae S288C
Procedure, shortened: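 Value is the scanned fluorescence intensity ratio of exposed versus chemical-free cells. Log-phase S288C yeast in YPD at 25° C. received one toxic substance for two hours, dosed to slow growth without killing; Cy3/Cy5-labeled cDNA from oligo-dT-purified mRNA was hybridized to a whole-genome chip at 65° C.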

Measured: The level of expressed mRNA in the presence of chemical substance/The level of expressed mRNA in the absence of chemical substance

C=CC=O [(14), acrolein]
1.4: yeast gene YBL005W-A | yeast gene YBR290W | yeast gene YDL137W | yeast gene YDR104C | yeast gene YDR168W | yeast gene YDR315C | yeast gene YDR378C | yeast gene YGR239C | yeast gene YIL076W | yeast gene YKL013C | yeast gene YKR098C | yeast gene YOL109W | yeast gene YOR362C
1.3: yeast gene YBR170C | yeast gene YBR177C | yeast gene YER021W | yeast gene YJL053W | yeast gene YKL041W | yeast gene YLR093C | yeast gene YLR251W | yeast gene YNR010W | yeast gene YOL164W | yeast gene YPL109C
2.2: yeast gene YDL008W | yeast gene YJR086W | yeast gene YKL070W | yeast gene YLR356W | yeast gene YMR004W | yeast gene YOR157C
0.3: yeast gene YIL123W
1.6: yeast gene YAL055W | yeast gene YDR085C | yeast gene YER009W | yeast gene YFL028C | yeast gene YFR050C | yeast gene YHR071W | yeast gene YJL035C | yeast gene YKL117W | yeast gene YLR107W | yeast gene YML092C | yeast gene YMR226C
0.7: yeast gene YJR004C | yeast gene YLR136C | yeast gene YLR429W | yeast gene YOR132W
3.1: yeast gene YFL022C
2.1: yeast gene YDR373W | yeast gene YER025W | yeast gene YGR232W | yeast gene YJL030W | yeast gene YJR099W | yeast gene YNR069C | yeast gene YOL038W | yeast gene YOR185C | yeast gene YOR298W
2.6: yeast gene YIR024C | yeast gene YJL116C
3.7: yeast gene YCR004C
1.2: yeast gene YCL027W | yeast gene YDL238C | yeast gene YDR358W | yeast gene YER039C | yeast gene YHR142W | yeast gene YKL193C | yeast gene YLR362W | yeast gene YMR276W | yeast gene YOR036W | yeast gene YOR259C
2.3: yeast gene YGL158W
1.1: yeast gene YAR062W | yeast gene YBL102W | yeast gene YBR139W | yeast gene YBR239C | yeast gene YDR403W | yeast gene YER107C | yeast gene YGR136W | yeast gene YHR169W | yeast gene YIL034C | yeast gene YJL073W | yeast gene YMR104C | yeast gene YNL093W | yeast gene YOR198C
0.9: yeast gene YBR214W | yeast gene YCR088W | yeast gene YDR055W | yeast gene YDR481C | yeast gene YER177W | yeast gene YGL094C | yeast gene YGR189C | yeast gene YGR257C | yeast gene YIL140W | yeast gene YJL164C | yeast gene YJL210W | yeast gene YMR027W | yeast gene YMR262W | yeast gene YOL013C | yeast gene YOR181W
1.0: yeast gene YAR009C | yeast gene YAR010C | yeast gene YBR010W | yeast gene YCR062W | yeast gene YCR069W | yeast gene YDR084C | yeast gene YDR125C | yeast gene YDR427W | yeast gene YFR014C | yeast gene YGL150C | yeast gene YGL229C | yeast gene YGR036C | yeast gene YGR120C | yeast gene YGR213C | yeast gene YHR161C | yeast gene YHR171W | yeast gene YIL142W | yeast gene YKL139W | yeast gene YLR266C | yeast gene YMR314W | yeast gene YOR117W | yeast gene YOR229W | yeast gene YPL149W | yeast gene YPR108W | yeast gene YPR185W
1.7: yeast gene YCL020W | yeast gene YCR071C | yeast gene YDR304C | yeast gene YIL010W
3.6: yeast gene YBL078C
0.8: yeast gene YER130C | yeast gene YHR004C | yeast gene YKL008C | yeast gene YKL039W | yeast gene YKL165C | yeast gene YLR120C | yeast gene YMR275C | yeast gene YNL006W | yeast gene YOR124C | yeast gene YOR288C | yeast gene YPL089C | yeast gene YPL154C
1.8: yeast gene YJL089W | yeast gene YKR014C | yeast gene YOR261C | yeast gene YPR103W
2.0: yeast gene YBL041W | yeast gene YGR131W | yeast gene YKL103C
2.8: yeast gene YLR178C | yeast gene YMR094W
1.9: yeast gene YBL043W | yeast gene YDR510W | yeast gene YEL066W | yeast gene YIR039C | yeast gene YNL333W
0.5: yeast gene YDR432W | yeast gene YKL096W | yeast gene YLR391W | yeast gene YMR219W
2.5: yeast gene YHR139C | yeast gene YKL196C | yeast gene YLR250W | yeast gene YOR265W
1.5: yeast gene YBL101W-A | yeast gene YBR026C | yeast gene YBR286W | yeast gene YDL018C | yeast gene YDR115W | yeast gene YDR259C | yeast gene YER072W | yeast gene YFL043C | yeast gene YGL185C | yeast gene YHR109W | yeast gene YHR163W | yeast gene YJL146W | yeast gene YLR118C | yeast gene YLR327C | yeast gene YMR091C | yeast gene YNR007C | yeast gene YOR257W | yeast gene YOR327C | yeast gene YOR367W | yeast gene YPL218W | yeast gene YPR015C | yeast gene YPR073C
0.6: yeast gene YDR388W | yeast gene YEL042W | yeast gene YOR355W | yeast gene YOR383C
3.0: yeast gene YBR173C
0.4: yeast gene YNL007C
